From PMC3233971 (Amino acids, 2010)
Residues, ends and D or L forms follow the SMILES beside them. No end group written: not given here. *: point of attachment. IRDye800CW = CC1(C)C(/C=C/C2=C(Oc3ccc(S(=O)(=O)O)cc3)C(=C/C=C3/N(CCCCS(=O)(=O)O)c4ccc(S(=O)(=O)O)cc4C3(C)C)/CCC2)=[N+](CCCCCC(=O)*)c2ccc(S(=O)(=O)[O-])cc21

Key:
[1] = system: LS174T tumor; experiment: Near-infrared fluorescence imaging of LS174T tumor-bearing mice; conditions: 4 h after i.v. injection; 1 nmol dye/mouse
[2] = system: human umbilical endothelial cells (HUVEC); conditions: 300 μg/ml peptide, 48 h exposure, absorbance 570 nm, n = 6
[3] = system: LS174T human colorectal cancer cells; conditions: 300 μg/ml peptide, 48 h exposure, absorbance 570 nm, n = 6
[4] = system: LS174T tumor; assay type: in vivo, mouse; conditions: 20 mg/kg i.p. every other day, 3 doses; 12 days after the optical imaging

Molecule: CC(C)C[C@H](NC(=O)[C@@H](NC(=O)[C@H](Cc1c[nH]c2ccccc12)NC(=O)CCCCC[N+]1=C(C=CC2=C(Oc3ccc(S(=O)(=O)O)cc3)C(=CC=C3N(CCCCS(=O)(=O)O)c4ccc(S(=O)(=O)O)cc4C3(C)C)CCC2)C(C)(C)c2cc(S(=O)(=O)[O-])ccc21)[C@@H](C)O)C(=O)N[C@@H](CCCNC(=N)N)C(=O)N1CCC[C@H]1C(=O)N[C@H](C(=O)N[C@@H](CC(C)C)C(=O)N[C@@H](Cc1c[nH]cn1)C(=O)N[C@H](C(=O)N[C@@H](CC(=O)O)C(=O)N[C@@H](Cc1c[nH]cn1)C(=O)N[C@@H](C)C(=O)O)[C@@H](C)O)[C@@H](C)O [scrambled peptide dye conjugate] (IRDye800CW-WTLRPTLHTDHA-OH; N-terminus and C-terminus assumed)
- renal clearance in NIR fluorescence images [1]: cleared through the kidneys much faster than the BRP peptide

Molecule: LLADTTHHRPWT [BRP]
- cell viability (MTT) [2]: 92.2 ± 2.4%
- cell viability (MTT) [3]: 98.3 ± 12.1%

Molecule: bevacizumab: humanized monoclonal antibody directed against human VEGF
- tumor volume [4]: 476.6 mm^3
